In paper PMC3914206:

Columns and labels:
Assay type in all cases: binding
[1] = target: T1, panel of 442 kinases (Homo sapiens, UniProt P17948); conditions: Compound Concentration 10 µM
T1 construct: purchased KINOMEscan
Text: (§1) We assessed the selectivity of members of this scaffold using the KINOMEscan methodology across a near comprehensive panel of 442 kinases [[18,27]].

[2] = target: T2, panel of 442 kinases (Homo sapiens, UniProt P49761); conditions: Compound Concentration 10 µM
T2 construct: purchased KINOMEscan
T2 sequence (P49761 whole entry): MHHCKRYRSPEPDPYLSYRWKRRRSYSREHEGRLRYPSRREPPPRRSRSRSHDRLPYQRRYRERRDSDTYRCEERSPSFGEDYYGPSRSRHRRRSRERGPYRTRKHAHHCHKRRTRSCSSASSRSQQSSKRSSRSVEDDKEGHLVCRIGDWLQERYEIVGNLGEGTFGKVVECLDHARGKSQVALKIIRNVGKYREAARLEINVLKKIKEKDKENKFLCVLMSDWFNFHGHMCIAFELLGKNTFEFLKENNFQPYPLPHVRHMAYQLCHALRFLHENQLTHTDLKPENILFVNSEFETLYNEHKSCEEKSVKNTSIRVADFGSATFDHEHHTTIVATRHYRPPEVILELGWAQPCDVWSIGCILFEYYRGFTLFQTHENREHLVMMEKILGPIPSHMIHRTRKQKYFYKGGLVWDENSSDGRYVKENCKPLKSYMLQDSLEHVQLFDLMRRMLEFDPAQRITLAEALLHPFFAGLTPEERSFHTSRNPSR
Text: as §1

[3] = target: T3, panel of 442 kinases (Homo sapiens, UniProt Q59H18); conditions: kinase TNNI3K; compound concentration 10 µM
T3 construct: purchased KINOMEscan
T3 sequence (Q59H18 1-835): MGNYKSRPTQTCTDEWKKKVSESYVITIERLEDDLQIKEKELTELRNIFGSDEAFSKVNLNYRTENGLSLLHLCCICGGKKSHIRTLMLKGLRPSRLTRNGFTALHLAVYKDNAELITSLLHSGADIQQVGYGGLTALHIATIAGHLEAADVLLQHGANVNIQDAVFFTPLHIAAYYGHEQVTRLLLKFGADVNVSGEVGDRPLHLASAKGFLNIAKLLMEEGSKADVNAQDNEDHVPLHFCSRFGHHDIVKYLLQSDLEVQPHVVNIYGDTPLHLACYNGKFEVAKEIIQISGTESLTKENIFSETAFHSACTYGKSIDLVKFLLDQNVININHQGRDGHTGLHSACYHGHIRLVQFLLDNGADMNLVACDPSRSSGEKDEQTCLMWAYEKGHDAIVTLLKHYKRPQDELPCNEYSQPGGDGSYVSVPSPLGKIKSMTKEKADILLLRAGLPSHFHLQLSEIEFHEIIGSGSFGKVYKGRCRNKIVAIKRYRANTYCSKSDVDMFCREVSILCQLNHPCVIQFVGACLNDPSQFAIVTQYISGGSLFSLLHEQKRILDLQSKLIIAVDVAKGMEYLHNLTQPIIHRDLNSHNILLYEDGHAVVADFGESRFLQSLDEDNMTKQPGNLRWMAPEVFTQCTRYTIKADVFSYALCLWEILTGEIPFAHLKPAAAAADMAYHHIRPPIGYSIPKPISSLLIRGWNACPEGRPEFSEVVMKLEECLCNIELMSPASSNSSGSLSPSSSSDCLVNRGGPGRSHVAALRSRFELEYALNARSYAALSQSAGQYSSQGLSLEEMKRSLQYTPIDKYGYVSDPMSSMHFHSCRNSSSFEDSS
Text: as §1

T1 sequence (P17948 27-1338): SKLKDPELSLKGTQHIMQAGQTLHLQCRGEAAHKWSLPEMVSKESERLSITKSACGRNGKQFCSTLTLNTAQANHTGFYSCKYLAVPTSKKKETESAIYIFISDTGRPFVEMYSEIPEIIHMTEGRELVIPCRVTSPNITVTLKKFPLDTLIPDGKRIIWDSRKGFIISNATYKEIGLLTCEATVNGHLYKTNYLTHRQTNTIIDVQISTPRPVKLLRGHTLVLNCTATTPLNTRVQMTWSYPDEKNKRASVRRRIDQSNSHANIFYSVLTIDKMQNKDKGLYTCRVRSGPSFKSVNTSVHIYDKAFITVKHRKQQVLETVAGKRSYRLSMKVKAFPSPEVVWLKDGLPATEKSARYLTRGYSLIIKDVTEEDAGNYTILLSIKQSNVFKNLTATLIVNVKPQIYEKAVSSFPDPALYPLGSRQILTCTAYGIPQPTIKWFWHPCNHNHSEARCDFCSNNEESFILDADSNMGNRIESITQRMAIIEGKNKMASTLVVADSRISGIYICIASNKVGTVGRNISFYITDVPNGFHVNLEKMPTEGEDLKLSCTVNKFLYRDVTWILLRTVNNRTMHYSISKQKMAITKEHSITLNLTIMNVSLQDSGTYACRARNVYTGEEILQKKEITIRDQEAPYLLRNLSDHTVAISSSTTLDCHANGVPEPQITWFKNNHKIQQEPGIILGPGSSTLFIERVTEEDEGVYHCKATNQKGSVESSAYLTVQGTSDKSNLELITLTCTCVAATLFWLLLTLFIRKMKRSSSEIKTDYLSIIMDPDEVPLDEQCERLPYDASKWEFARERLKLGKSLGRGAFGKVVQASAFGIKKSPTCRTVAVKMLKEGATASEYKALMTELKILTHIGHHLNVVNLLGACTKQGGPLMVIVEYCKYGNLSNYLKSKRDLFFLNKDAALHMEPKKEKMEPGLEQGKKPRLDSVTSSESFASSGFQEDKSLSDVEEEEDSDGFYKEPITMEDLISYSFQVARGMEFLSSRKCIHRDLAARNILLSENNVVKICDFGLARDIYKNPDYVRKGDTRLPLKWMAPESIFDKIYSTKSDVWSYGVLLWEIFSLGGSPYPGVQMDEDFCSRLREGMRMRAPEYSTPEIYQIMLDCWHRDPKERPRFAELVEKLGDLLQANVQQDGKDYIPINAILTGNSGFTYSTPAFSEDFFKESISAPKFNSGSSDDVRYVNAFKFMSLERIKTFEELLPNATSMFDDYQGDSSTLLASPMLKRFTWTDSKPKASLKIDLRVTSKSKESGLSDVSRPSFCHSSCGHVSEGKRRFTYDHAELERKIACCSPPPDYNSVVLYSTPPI

SMILES | KINOMEscan: FLT1 [1] | KINOMEscan: CLK3 [2] | % Ctrl, TNNI3K [3]
COc1cc(C(=O)N2CCC(N3CCN(C)CC3)CC2)ccc1Nc1ncc2c(n1)N(C)c1ccccc1C(=O)N2C [15 (LRRK2-IN-1)] | 100 | 95 | 100 % Ctrl
CCOc1cc(C(=O)N2CCC(N3CCN(C)CC3)CC2)ccc1Nc1ncc2c(n1)N(C1CCCC1)c1ccccc1C(=O)N2C [Compound 26] | 100 | 100 | 89 % Ctrl
COc1cc(C(=O)N2CCC(N3CCN(C)CC3)CC2)ccc1Nc1ncc2c(n1)N1CCc3cccc(c31)C(=O)N2C [Compound 24] |  | 80 | 73 % Ctrl
COc1cc(C(=O)N2CCC(N3CCN(C)CC3)CC2)ccc1Nc1ncc2c(n1)N(C1CCCC1)c1ccccc1C(=O)N2C [Compound 25, 11-cyclopentyl-2-((2-methoxy-4-(4-(4-methylpiperazin-1-yl)piperidine-1-carbonyl)phenyl)amino)-5-methyl-5H-benzo[e]pyrimido[5,4-b][1,4]diazepin-6(11H)-one] | 100 | 100 | 82 % Ctrl
